This note sets out measurements from ChEMBL document CHEMBL1201862, “PubChem BioAssay data set” (2004).

SMILES strings stand for the structures.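 Each compound was tested at five concentrations against cells in 96-well plates for 48 hours. Here, GI50 denotes the concentration required for 50% inhibition of growth.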 Calls of active or inactive are those of the source. Cut-off read from the data, not from the text of the source: active = GI50 up to about 1.1 µM and inactive = higher.

Common to all, as to test: NCI anticancer screen, dose series, 48 h
In assay [1] the test system is A498.
In assay [2] the test system is ACHN.
Assay [3] has as its system COLO 205.
The subject of assay [4] is HCC 2998.
Assay [5] has as its system HCT-116.
In assay [6] the test system is HCT-15.
Assay [7] has as its system HL-60.
The test system of assay [8] is HOP-62.
The subject of assay [9] is HT-29.
Assay [10] relates to IGROV-1.
Assay [11] has as its system Malme-3M.
The subject of assay [12] is NCI-H23.
Assay [13] concerns NCI-H522.
Assay [14] has as its system OVCAR-4.
For assay [15], the system named is OVCAR-8.
For assay [16], the system named is PC-3.
In assay [17] the test system is SK-MEL-28.
Assay [18] relates to SK-OV-3.
In assay [19] the test system is UACC-257.
Assay [20] has as its system UO-31.

Take `O=C1CC(=O)c2c(N3CCCC3)sc(N3CCCC3)c21`: the GI50 in assay [1] is > 100 µM (inactive); in assay [2] it was > 100 µM (inactive); in [3] it was > 100 µM (inactive); in assay [4], > 100 µM (inactive); in assay [5], > 100 µM (inactive); in assay [6] it was more than 100 µM. Also, the GI50 in [7], in assay [8], in [9], in assay [10], in assay [11] and in assay [12] was > 100 µM (inactive) each time. In addition, the GI50 in assay [13] was 57.4 µM (inactive); in [14], > 100 µM (inactive); in [15], > 100 µM (inactive); in assay [16] it was > 100 µM (inactive); in [17], > 100 µM (inactive); in assay [18], > 100 µM (inactive). Besides, the GI50 in assay [19] and in assay [20] was > 100 µM (inactive) each time.

For the molecule `NNC(=O)CSc1nnc(CCCCCCCCc2nnc(SCC(=O)NN)o2)o1`, the GI50 is > 100 µM (inactive) in assay [1]; > 100 µM (inactive) in assay [2]; > 100 µM (inactive) in [3]; > 100 µM (inactive) in assay [4]; > 100 µM (inactive) in [5]; more than 100 µM in assay [6]. Further, the GI50 in assay [7], in [8], in assay [9], in assay [10], in assay [11] and in assay [12] was > 100 µM (inactive) each time. Also, the GI50 in assay [13], in [14], in [15], in [16], in assay [17] and in assay [18] was > 100 µM (inactive) throughout. Further, the GI50 in assay [19] and in assay [20] was > 100 µM (inactive) each time.

Turning to `O=CC(=C(I)I)c1ccccc1`, the GI50 is 21.6 µM (inactive) in [1]; 3 µM (inactive) in assay [2]; 2.51 µM (inactive) in [3]; 10.5 µM (inactive) in assay [4]; 0.855 µM (active) in [5]; 1.82 µM in assay [6]. Moreover, the GI50 in assay [7] is 0.0635 µM (active); in assay [8] it was 7.24 µM (inactive); in assay [9], 3.04 µM (inactive); in assay [10] it was 4.06 µM (inactive); in assay [11], 2.15 µM (inactive); in assay [12], 2.05 µM (inactive). In addition, the GI50 in [13] is 2 µM (inactive); in assay [14], 2.03 µM (inactive); in [15], 2.46 µM (inactive); in assay [16], 3.7 µM (inactive); in assay [17], 2.64 µM (inactive); in [18], 15.9 µM (inactive). Besides, the results for the GI50 in [19] and in assay [20] were 2.9 µM (inactive) and 2.69 µM (inactive), respectively.

For the molecule `CC(NP(=O)(c1ccccc1)c1ccccc1)c1ccccc1` (stereo not given), the GI50 in assay [1] was > 100 µM (inactive); in assay [2], > 100 µM (inactive); in assay [3] it was > 100 µM (inactive); in assay [4], > 100 µM (inactive); in assay [5] it was > 100 µM (inactive); in [6], more than 100 µM. Further, the GI50 in assay [7], in [8], in assay [9], in assay [10], in assay [11] and in assay [12] was > 100 µM (inactive) in each case. Besides, the GI50 in assay [13], in assay [14], in assay [15], in assay [16], in [17] and in assay [18] was > 100 µM (inactive) in each case. In addition, the GI50 in assay [19] and in assay [20] was > 100 µM (inactive) each time.
